Solubility and Solubility data for one molecule are collected here from US12679840B2, “Process for the preparation of (9S)-N-[3-(6-methylpyrimidin-4-yl)-3-azabicyclo[3.2.1]octan-8-yl]-9-(2,3,4-trifluorophenyl)-6,7,8,9-tetrahydro-5H-[1,2,4]triazolo[1,5-a]azepin-2-amine and its solid form” (Hoffmann-La Roche Inc., priority 2020, dated 2026).

The nature of the data set: Solubility study of Form A in buffers, water and biorelevant media (suspension shaken 24 hours at 25° C., filtrate by UPLC). It is filed as physicochemical. Conditions: for solubility at 24 h: thermodynamic from solid. How it is done: • pH 1.00 buffer • pH 3.00 buffer • pH 5.00 buffer • pH 7.00 buffer • pH 9.00 buffer • Water • SGF without Triton • FaSSIF • FeSSIF b. Testing Procedure
Weigh about 5 mg of compound (I) into glass vial and add 0.5 ml testing medium listed above to form suspension. Shake these suspensions at 1200 rpm for about 24 hours under 25° C.
At the end of 24 hours, pull out all the vials and filter the suspensions by 0.22 μm PVDF filters. Check the pH value and concentration of filtrate by pH meter and UPLC respectively.
The result indicates the solubility is pH dependent.

≈ marks a conversion by molar mass, not a printed value. Where “and” joins values, the source holds several entries; their conditions need not be identical. Equal entries are not always repeated.

The solubility is the concentration that dissolves in the medium under given conditions. A higher solubility goes with a readily soluble substance. A word on the Solubility: it is the dissolved amount per volume that the medium holds. `Cc1cc(N2CC3CCC(C2)C3Nc2nc3n(n2)CCCC[C@H]3c2ccc(F)c(F)c2F)ncn1` (stereo partly drawn) [Form A, (9S)-N-[3-(6-methylpyrimidin-4-yl)-3-azabicyclo[3.2.1]octan-8-yl]-9-(2,3,4-trifluorophenyl)-6,7,8,9-tetrahydro-5H-[1,2,4]triazolo[1,5-a]azepin-2-amine]: the solubility at 24 h runs as follows: (FaSSIF, 25 °C, about 24 hours, individual replicate) 34 µg/mL (≈ 70.3 µM); (FaSSIF, 25 °C, about 24 hours, mean ± spread of three replicates) 33 µg/mL (≈ 68.2 µM); (FeSSIF, 25 °C, about 24 hours, individual replicate) 614 µg/mL (≈ 1270 µM); (FeSSIF, 25 °C, about 24 hours, mean ± spread of three replicates) 618 ± 7 µg/mL (≈ 1280 µM); (SGF without Triton-X100, 25 °C, simulated gastric fluid, SGF without Triton-X100, about 24 hours, individual replicate) above 10000 µg/mL; (SGF without Triton-X100, 25 °C, simulated gastric fluid, SGF without Triton-X100, about 24 hours, mean of three replicates) above 10000 µg/mL. Besides, the solubility at 24 h is above 10000 µg/mL (pH 1.0 buffer, 25 °C, pH 1, aqueous buffer, about 24 hours, individual replicate); above 10000 µg/mL (pH 1.0 buffer, 25 °C, pH 1, aqueous buffer, about 24 hours, mean of three replicates); 5480 µg/mL (≈ 11300 µM) (pH 3.0 buffer, 25 °C, pH 3, aqueous buffer, about 24 hours, individual replicate); 5347 ± 47 µg/mL (≈ 11100 µM) (pH 3.0 buffer, 25 °C, pH 3, aqueous buffer, about 24 hours, mean ± spread of three replicates); 91 µg/mL (≈ 188 µM) (pH 5.0 buffer, 25 °C, pH 5, aqueous buffer, about 24 hours, individual replicate); 101 ± 9 µg/mL (≈ 209 µM) (pH 5.0 buffer, 25 °C, pH 5, aqueous buffer, about 24 hours, mean ± spread of three replicates). Moreover, the solubility at 24 h by setting is: (pH 7.0 buffer, 25 °C, pH 7, aqueous buffer, about 24 hours, individual replicate) 7 µg/mL (≈ 14.5 µM); (pH 7.0 buffer, 25 °C, pH 7, aqueous buffer, about 24 hours, mean ± spread of three replicates) 6 µg/mL (≈ 12.4 µM); (pH 9.0 buffer, 25 °C, pH 9, aqueous buffer, about 24 hours, individual replicate) 6 µg/mL (≈ 12.4 µM); (pH 9.0 buffer, 25 °C, pH 9, aqueous buffer, about 24 hours, mean ± spread of three replicates) 6 µg/mL (≈ 12.4 µM); (water, 25 °C, about 24 hours, individual replicate) 7 µg/mL (≈ 14.5 µM); (water, 25 °C, about 24 hours, mean ± spread of three replicates) 6 µg/mL (≈ 12.4 µM). The Solubility is, setting by setting: (FaSSIF, about 24 hours, individual replicate) 33 µg/mL (≈ 68.2 µM); (FeSSIF, about 24 hours, individual replicate) 611 µg/mL and 628 µg/mL; (Water, about 24 hours, individual replicate) 6 µg/mL (≈ 12.4 µM); (pH 3.0 buffer, about 24 hours, individual replicate) 5366 µg/mL and 5468 µg/mL; (pH 5.0 buffer, about 24 hours, individual replicate) 97 µg/mL and 114 µg/mL; (pH 7.0 buffer, about 24 hours, individual replicate) 6 µg/mL (≈ 12.4 µM).
